According to patent US9765075B2, “Substituted bridged urea analogs as sirtuin modulators” (GLAXOSMITHKLINE LLC, priority 2013, dated 2017):

Target: T1, SIRT1 (Homo sapiens, UniProt Q96EB6)
T1 sequence (Q96EB6 1-747): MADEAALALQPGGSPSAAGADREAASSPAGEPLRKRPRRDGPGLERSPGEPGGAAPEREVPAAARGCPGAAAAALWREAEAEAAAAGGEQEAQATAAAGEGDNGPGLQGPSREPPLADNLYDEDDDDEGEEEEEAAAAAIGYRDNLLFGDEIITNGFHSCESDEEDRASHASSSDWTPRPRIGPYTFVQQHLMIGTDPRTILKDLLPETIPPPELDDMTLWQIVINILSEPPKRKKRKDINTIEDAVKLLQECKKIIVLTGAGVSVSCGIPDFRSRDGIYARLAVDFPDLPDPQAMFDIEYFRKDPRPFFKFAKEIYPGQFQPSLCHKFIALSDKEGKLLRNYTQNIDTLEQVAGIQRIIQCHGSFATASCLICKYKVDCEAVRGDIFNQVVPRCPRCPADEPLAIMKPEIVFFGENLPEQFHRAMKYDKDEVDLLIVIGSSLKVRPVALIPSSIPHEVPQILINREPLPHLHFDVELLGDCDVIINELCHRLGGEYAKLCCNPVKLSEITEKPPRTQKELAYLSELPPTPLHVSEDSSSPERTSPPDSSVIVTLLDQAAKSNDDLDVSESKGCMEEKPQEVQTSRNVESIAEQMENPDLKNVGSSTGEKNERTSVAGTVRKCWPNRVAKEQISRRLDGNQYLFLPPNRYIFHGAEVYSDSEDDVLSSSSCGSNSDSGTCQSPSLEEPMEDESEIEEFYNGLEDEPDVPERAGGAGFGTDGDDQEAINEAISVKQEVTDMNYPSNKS
Assay: Trp mass spectrometry assay (SIRT1 activation)
Assay type: biochemical
Settings: Trp peptide substrate; for Tryp AVG EC1.5 (μM): concentration of test compound that results in 150% activation of SIRT1; for Emax: percent maximum fold activation of SIRT1, read-out: Tryp % Fold Act
How it was run: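 Activation is expressed as EC1.5, the concentration raising activity 50% above DMSO control, and as maximum percent of control. Mass-spec readout was OAADPR or deacetylated Trp peptide after a formic-acid-quenched 25-min, 25 °C reaction: 10 nM bacterially expressed His-SIRT1, 0.5 μM acetyl-p53-derived peptide, 120 μM NAD+, pH 7.5 HEPES with […].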

| Tryp AVG EC1.5 (μM) | Emax [%] | Compound |
| --- | --- | --- |
| C (EC1.5>25 μM) | < 150 | Cc1cnc(NC(=O)N2c3nc(N4CCCC(C(F)(F)F)C4)ccc3N3CCC[C@@H]2C3)s1 (some centres unmarked) [Example 311] |
| B (EC1.5 1-25 μM) | ≥ 150 | Cc1csc(NC(=O)N2c3nc(N4CCCC(C(F)(F)F)C4)ccc3N3CCC[C@@H]2C3)n1 (some centres unmarked) [Example 312] |
| C (EC1.5>25 μM) | < 150 | Cc1nc(NC(=O)N2c3nc(N4CCCC(C(F)(F)F)C4)ccc3N3CCC[C@@H]2C3)sc1C (some centres unmarked) [Example 313] |
| B (EC1.5 1-25 μM) | ≥ 150 | O=C(Nc1cccc(C2(C(F)(F)F)N=N2)c1)N1c2nc(-c3cccc(C(F)(F)F)c3)ccc2N2CC[C@H]1C2 [Example 315] |
| A (EC1.5<1 μM) | ≥ 150 | O=C(Nc1ccccn1)N1c2nc(-c3cncc(C(F)(F)F)c3)ccc2N2CC[C@H]1C2 [Example 316] |
| B (EC1.5 1-25 μM) | ≥ 150 | COc1cc(NC(=O)N2c3nc(-c4cncc(C(F)(F)F)c4)ccc3N3CC[C@H]2C3)ncn1 [Example 317] |
| B (EC1.5 1-25 μM) | ≥ 150 | O=C(Nc1ccccn1)N1c2nc(-c3cccc(N4CCC(C(F)(F)F)C4)c3)ccc2N2CC[C@H]1C2 (some centres unmarked) [Example 318] |
| B (EC1.5 1-25 μM) | ≥ 150 | O=C(Nc1cnccn1)N1c2nc(-c3cccc(N4CCC(C(F)(F)F)C4)c3)ccc2N2CC[C@H]1C2 (some centres unmarked) [Example 319] |
| B (EC1.5 1-25 μM) | ≥ 150 | COc1cc(NC(=O)N2c3nc(-c4cccc(N5CCC(C(F)(F)F)C5)c4)ccc3N3CC[C@H]2C3)ncn1 (some centres unmarked) [Example 320] |
| B (EC1.5 1-25 μM) | ≥ 150 | O=C(Nc1ccc(F)cn1)N1c2nc(-c3cccc(N4CCC(C(F)(F)F)C4)c3)ccc2N2CC[C@H]1C2 (some centres unmarked) [Example 321] |
| B (EC1.5 1-25 μM) | ≥ 150 | O=C(Nc1cncc(F)c1)N1c2nc(-c3cccc(N4CCC(C(F)(F)F)C4)c3)ccc2N2CC[C@H]1C2 (some centres unmarked) [Example 323] |
| A (EC1.5<1 μM) | ≥ 150 | O=C(Nc1ccccn1)N1c2nc(-c3cc(Cl)cc(Cl)c3)ccc2N2CC[C@H]1C2 [Example 324] |
| A (EC1.5<1 μM) | ≥ 150 | Cc1cncc(-c2ccc3c(n2)N(C(=O)Nc2ccccn2)[C@H]2CCN3C2)c1 [Example 325] |
| B (EC1.5 1-25 μM) | ≥ 150 | CS(=O)(=O)c1ccc(-c2ccc3c(n2)N(C(=O)Nc2ccccn2)[C@H]2CCN3C2)cc1 [Example 326] |
| C (EC1.5>25 μM) | ≥ 150 | Cc1noc(C)c1-c1ccc2c(n1)N(C(=O)Nc1ccccn1)[C@H]1CCN2C1 [Example 327] |
| B (EC1.5 1-25 μM) | ≥ 150 | CS(=O)(=O)c1cncc(-c2ccc3c(n2)N(C(=O)Nc2ccccn2)[C@H]2CCN3C2)c1 [Example 328] |
| A (EC1.5<1 μM) | ≥ 150 | O=C(Nc1ccccn1)N1c2nc(-c3ccc(F)c(Cl)c3)ccc2N2CC[C@H]1C2 [Example 329] |
| A (EC1.5<1 μM) | ≥ 150 | CC(C)c1cccc(-c2ccc3c(n2)N(C(=O)Nc2ccccn2)[C@H]2CCN3C2)c1 [Example 330] |
| B (EC1.5 1-25 μM) | ≥ 150 | Cn1ccc(-c2ccc3c(n2)N(C(=O)Nc2ccccn2)[C@H]2CCN3C2)n1 [Example 331] |
| A (EC1.5<1 μM) | ≥ 150 | O=C(Nc1ccccn1)N1c2nc(-c3ccc(Cl)c(Cl)c3)ccc2N2CC[C@H]1C2 [Example 332] |
| A (EC1.5<1 μM) | ≥ 150 | O=C(Nc1ccccn1)N1c2nc(-c3cc(F)cc(C(F)(F)F)c3)ccc2N2CC[C@H]1C2 [Example 333] |
| B (EC1.5 1-25 μM) | ≥ 150 | O=C(Nc1ccccn1)N1c2nc(-c3cccc(C(F)(F)F)c3F)ccc2N2CC[C@H]1C2 [Example 334] |
| A (EC1.5<1 μM) | ≥ 150 | O=C(Nc1cccc(C2(C(F)(F)F)N=N2)c1)N1c2nc(-c3cccc(C(F)(F)F)c3)ccc2N2CCC[C@H]1C2 [Example 335] |
| B (EC1.5 1-25 μM) | ≥ 150 | O=C(Nc1ccccn1)N1c2nc(-c3cccc(C(F)(F)F)n3)ccc2N2CC[C@H]1C2 [Example 336] |
| B (EC1.5 1-25 μM) | ≥ 150 | O=C(Nc1ccncn1)N1c2nc(-c3cccc(C(F)(F)F)n3)ccc2N2CC[C@H]1C2 [Example 337] |

| Tryp AVG EC1.5 (μM) | Emax [%] | Compound |
| --- | --- | --- |
| B (EC1.5 1-25 μM) | ≥ 150 | O=C(Nc1cnccn1)N1c2nc(-c3cccc(C(F)(F)F)n3)ccc2N2CC[C@H]1C2 [Example 338] |
| B (EC1.5 1-25 μM) | ≥ 150 | COc1cc(NC(=O)N2c3nc(-c4cccc(C(F)(F)F)n4)ccc3N3CC[C@H]2C3)ncn1 [Example 339] |
| B (EC1.5 1-25 μM) | ≥ 150 | O=C(Nc1ccc(F)cn1)N1c2nc(-c3cccc(C(F)(F)F)n3)ccc2N2CC[C@H]1C2 [Example 340] |
| A (EC1.5<1 μM) | ≥ 150 | N#Cc1cc(-c2ccc3c(n2)N(C(=O)Nc2ccccn2)[C@H]2CCN3C2)ccc1F [Example 341] |
| B (EC1.5 1-25 μM) | ≥ 150 | COc1ccc(-c2ccc3c(n2)N(C(=O)Nc2ccccn2)[C@H]2CCN3C2)cn1 [Example 342] |
| B (EC1.5 1-25 μM) | ≥ 150 | CN(C)Cc1cccc(-c2ccc3c(n2)N(C(=O)Nc2ccccn2)[C@H]2CCN3C2)c1 [Example 343] |
| A (EC1.5<1 μM) | ≥ 150 | O=C(Nc1ccccn1)N1c2nc(-c3cc(F)cc(F)c3)ccc2N2CC[C@H]1C2 [Example 344] |
| B (EC1.5 1-25 μM) | ≥ 150 | CN(C)c1ccc(-c2ccc3c(n2)N(C(=O)Nc2ccccn2)[C@H]2CCN3C2)cn1 [Example 345] |
| B (EC1.5 1-25 μM) | ≥ 150 | COc1cncc(-c2ccc3c(n2)N(C(=O)Nc2ccccn2)[C@H]2CCN3C2)c1 [Example 346] |
| A (EC1.5<1 μM) | ≥ 150 | O=C(Nc1ccccn1)N1c2nc(-c3ccc(-c4nnn[nH]4)cc3)ccc2N2CC[C@H]1C2 [Example 347] |
| A (EC1.5<1 μM) | ≥ 150 | N#Cc1cccc(-c2ccc3c(n2)N(C(=O)Nc2ccccn2)[C@H]2CCCN3C2)c1 [Example 348] |
| B (EC1.5 1-25 μM) | ≥ 150 | Cn1cc(-c2ccc3c(n2)N(C(=O)Nc2ccccn2)[C@H]2CCN3C2)cn1 [Example 349] |
| A (EC1.5<1 μM) | ≥ 150 | N#Cc1cccc(-c2ccc3c(n2)N(C(=O)Nc2cccnc2)[C@H]2CCCN3C2)c1 [Example 350] |
| A (EC1.5<1 μM) | ≥ 150 | N#Cc1cccc(-c2ccc3c(n2)N(C(=O)Nc2cnccn2)[C@H]2CCCN3C2)c1 [Example 351] |
| A (EC1.5<1 μM) | ≥ 150 | N#Cc1cccc(-c2ccc3c(n2)N(C(=O)Nc2ccncn2)[C@H]2CCCN3C2)c1 [Example 352] |
| A (EC1.5<1 μM) | ≥ 150 | N#Cc1cccc(-c2ccc3c(n2)N(C(=O)Nc2cncc(F)c2)[C@H]2CCCN3C2)c1 [Example 353] |
| A (EC1.5<1 μM) | ≥ 150 | O=C(Nc1ccccn1)N1c2nc(-c3cccc(CC(O)CO)c3)ccc2N2CC[C@H]1C2 (some centres unmarked) [Example 354] |
| B (EC1.5 1-25 μM) | ≥ 150 | COc1cc(NC(=O)N2c3nc(-c4cccc(CC(O)CO)c4)ccc3N3CC[C@H]2C3)ncn1 (some centres unmarked) [Example 355] |
| A (EC1.5<1 μM) | ≥ 150 | O=C(Nc1ccc(F)cn1)N1c2nc(-c3cccc(CC(O)CO)c3)ccc2N2CC[C@H]1C2 (some centres unmarked) [Example 356] |
| B (EC1.5 1-25 μM) | ≥ 150 | O=C(Nc1ccncc1F)N1c2nc(-c3cccc(CC(O)CO)c3)ccc2N2CC[C@H]1C2 (some centres unmarked) [Example 357] |
| C (EC1.5>25 μM) | < 150 | COc1cc(NC(=O)N2c3nc(-c4ccnc(F)c4)ccc3N3CC[C@H]2C3)ncn1 [Example 358] |
| A (EC1.5<1 μM) | ≥ 150 | O=C(Nc1ccc(F)cn1)N1c2nc(N3CCCC(C(F)(F)F)C3)ccc2N2CCC[C@H]1C2 (some centres unmarked) [Example 359] |
| A (EC1.5<1 μM) | ≥ 150 | O=C(Nc1ccncc1)N1c2nc(N3CCCC(C(F)(F)F)C3)ccc2N2CCC[C@H]1C2 (some centres unmarked) [Example 360] |
| A (EC1.5<1 μM) | ≥ 150 | O=C(Nc1cc(O)ncn1)N1c2nc(N3CCCC(C(F)(F)F)C3)ccc2N2CCC[C@H]1C2 (some centres unmarked) [Example 361] |
